Patent US9469642B2, “Purinone compounds as kinase inhibitors” (Pharmacyclics LLC, priority 2012, dated 2016)
Structures can show the parent of a compound that is named as a salt.

Legend:
Format in all cases: biochemical
LCK = LCK (Homo sapiens, UniProt P06239); test: Kinase panel inhibition, LCK (one of the methods of Example 76a, 76b, 76c)
Experimental: (§1) Btk kinase activity is determined using a time-resolved fluorescence resonance energy transfer (TR-FRET) methodology. Measurements are performed in a reaction volume of 50 μL using 96-well assay plates. Kinase enzyme, inhibitor, ATP (at the Km for the kinase), and 1 peptide substrate (Biotin-AVLESEEELYSSARQ-NH2) are incubated in a reaction buffer composed of 20 mM Tris, 50 mM NaCl, MgCl2 (5-25 mM depending on the kinase), MnCl2 (0-10 mM), 1 mM DTT, 0.1 mM EDTA, 0.01% bovine serum albumin, 0.005% Tween-20, and 10% DMSO at pH 7.4 for one hour. The reaction is quenched by the addition of 1.2 equivalents of EDTA (relative to divalent cation) in 25 μL of 1× Lance buffer (Perkin-Elmer). Streptavidin-APC (Perkin-Elmer) and Eu-labeled p-Tyr100 antibody (Perkin-Elmer) in 1× Lance buffer are added in a 25 μL volume to give final concentrations of 100 nM and 2.5 nM, respectively, and the mixture is allowed to incubate for one hour. The TR-FRET signal is measured on a multimode plate reader with an excitation wavelength (λEx) of 330 nm and detection wavelengths (λEm) of 615 and 665 nm. Activity is determined by the ratio of the fluorescence at 665 nm to that at 615 nm. For each compound, enzyme activity is measured at various concentrations of compound. Negative control reactions are performed in the absence of inhibitor in replicates of six, and two no-enzyme controls are used to determine baseline fluorescence levels. Inhibition constants, Ki(app), were obtained using the program BatchKi (Kuzmic et al. (2000), Anal. Biochem. 286:45-50). IC50s are obtained according to the equation: IC50=[…]+[E]total/2;
(§2) For all kinases, [ATP]=Km^ATP, [Btk]total=0.5 nM and [Lck]total=6 nM.
(§3) Kinase activity is measured in vitro using electrophoretic mobility shift assay. The kinase reactions are assembled in a total volume of 25 μL in 384 well plates. The reactions comprise: BTK enzyme (1 nM, N-terminal His6-tagged, recombinant, full-length, human BTK purified from baculovirus Sf21 insect cell system), inhibitor, ATP (16 μM, the apparent Km for the kinase), fluorescently labeled peptide substrate (1 μM, FAM-GEEPLYWSFPAKKK-NH2) in a reaction buffer composed of 100 mM HEPES, pH7.5, 5 mM MgCl2 1 mM DTT, 0.1% bovine serum albumin, 0.01% Triton X-100, and 1% DMSO. The reaction is incubated for one hour and is quenched by the addition of 45 μL of termination buffer (100 mM HEPES, pH7.5, 0.01% Triton X-100, 30 mM EDTA). The terminated reactions are analyzed using 12 channel LabChip® 3000 microfluidic detection instrument (Caliper Life Sciences). The enzymatic phosphorylation of the peptide results in a change in net charge, enabling electrophoretic separation of product from substrate peptide. As substrate and product peptides are separated, two peaks of fluorescence are observed. Change in the relative fluorescence intensity of the substrate and product peaks is the parameter measured, reflecting enzyme activity. In the presence of an inhibitor, the ratio between product and substrate is altered:the signal of the product decreases, while the signal of the substrate increases.
(§4) Activity in each sample is determined as the product to sum ratio (PSR):P/(S+P), where P is the peak height of the product peptide and S is the peak height of the substrate peptide. For each compound, enzyme activity is measured at various concentrations (12 concentrations of compound spaced by 3× dilution intervals). Negative control samples (0%-inhibition in the absence of inhibitor) and positive control samples (100%-inhibition, in the presence of 20 mM EDTA) are assembled in replicates of four and are used to calculate %-inhibition values for each inhibitor at each concentration. Percent inhibition (Pinh) is determined using following equation: […]

EGFR = EGFR (Homo sapiens, UniProt P00533); test: Kinase panel inhibition, EGFR (one of the methods of Example 76a, 76b, 76c)
Experimental: as §1, §2, §3, §4

BTK = target: T1, BTK (Homo sapiens, UniProt Q06187); test: Btk in vitro inhibitory activity (kinase assay by one of Methods A, B or C)
T1 construct: purified from insect cells as a full-length construct containing a N-terminal 6×-His tag; His6 (N); host or cells: insect cells (baculovirus Sf21)
Experimental: as §1, §2, §3, §4

T1 sequence (Q06187 whole entry): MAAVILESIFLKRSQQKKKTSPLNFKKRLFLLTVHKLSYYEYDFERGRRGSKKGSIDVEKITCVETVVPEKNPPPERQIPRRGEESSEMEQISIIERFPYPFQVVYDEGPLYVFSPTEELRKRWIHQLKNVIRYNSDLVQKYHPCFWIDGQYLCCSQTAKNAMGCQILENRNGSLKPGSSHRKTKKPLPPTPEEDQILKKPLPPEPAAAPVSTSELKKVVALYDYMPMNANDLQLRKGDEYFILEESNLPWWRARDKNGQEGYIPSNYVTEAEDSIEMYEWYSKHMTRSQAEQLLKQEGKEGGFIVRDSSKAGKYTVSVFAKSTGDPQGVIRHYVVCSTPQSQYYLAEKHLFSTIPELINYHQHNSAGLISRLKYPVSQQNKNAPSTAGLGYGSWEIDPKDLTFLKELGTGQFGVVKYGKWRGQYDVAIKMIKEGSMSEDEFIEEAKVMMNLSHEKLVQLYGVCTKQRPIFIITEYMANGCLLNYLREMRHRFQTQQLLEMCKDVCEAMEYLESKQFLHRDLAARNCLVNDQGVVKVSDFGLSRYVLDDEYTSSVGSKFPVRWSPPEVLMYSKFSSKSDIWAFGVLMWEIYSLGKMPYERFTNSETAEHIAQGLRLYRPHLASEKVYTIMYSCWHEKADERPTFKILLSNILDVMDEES
Sequence of EGFR (P00533 25-1210, species assumed): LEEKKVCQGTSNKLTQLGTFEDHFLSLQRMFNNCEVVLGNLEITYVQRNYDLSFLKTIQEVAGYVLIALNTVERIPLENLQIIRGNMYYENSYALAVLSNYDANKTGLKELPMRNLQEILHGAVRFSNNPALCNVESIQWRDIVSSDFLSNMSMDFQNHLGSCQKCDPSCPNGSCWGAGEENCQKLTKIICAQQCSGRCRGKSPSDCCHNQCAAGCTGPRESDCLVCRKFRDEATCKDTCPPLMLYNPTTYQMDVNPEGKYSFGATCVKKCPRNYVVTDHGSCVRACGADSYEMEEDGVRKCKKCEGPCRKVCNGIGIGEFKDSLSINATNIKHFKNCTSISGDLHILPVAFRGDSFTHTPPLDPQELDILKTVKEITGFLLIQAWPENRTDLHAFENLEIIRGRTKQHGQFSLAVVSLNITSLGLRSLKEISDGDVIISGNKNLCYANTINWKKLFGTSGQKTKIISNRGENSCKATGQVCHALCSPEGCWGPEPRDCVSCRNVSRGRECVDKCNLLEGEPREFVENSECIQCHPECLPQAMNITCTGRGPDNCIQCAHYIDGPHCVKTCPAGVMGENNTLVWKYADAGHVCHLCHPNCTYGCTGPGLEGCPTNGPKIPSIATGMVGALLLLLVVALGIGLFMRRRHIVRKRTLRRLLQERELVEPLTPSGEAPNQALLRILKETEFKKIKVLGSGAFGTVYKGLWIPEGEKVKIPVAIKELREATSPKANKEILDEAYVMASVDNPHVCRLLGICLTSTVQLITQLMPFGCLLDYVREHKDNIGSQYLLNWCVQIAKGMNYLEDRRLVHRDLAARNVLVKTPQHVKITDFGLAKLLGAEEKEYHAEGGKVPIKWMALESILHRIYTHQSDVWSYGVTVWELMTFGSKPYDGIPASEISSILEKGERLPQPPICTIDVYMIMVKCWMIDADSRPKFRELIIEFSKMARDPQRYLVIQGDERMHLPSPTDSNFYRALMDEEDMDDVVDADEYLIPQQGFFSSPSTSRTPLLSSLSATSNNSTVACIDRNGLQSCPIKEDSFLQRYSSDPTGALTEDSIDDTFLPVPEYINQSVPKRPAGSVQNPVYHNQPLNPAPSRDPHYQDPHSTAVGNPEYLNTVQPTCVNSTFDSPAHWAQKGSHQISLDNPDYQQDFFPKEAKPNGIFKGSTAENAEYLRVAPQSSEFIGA
Sequence of LCK (P06239 whole entry, species assumed): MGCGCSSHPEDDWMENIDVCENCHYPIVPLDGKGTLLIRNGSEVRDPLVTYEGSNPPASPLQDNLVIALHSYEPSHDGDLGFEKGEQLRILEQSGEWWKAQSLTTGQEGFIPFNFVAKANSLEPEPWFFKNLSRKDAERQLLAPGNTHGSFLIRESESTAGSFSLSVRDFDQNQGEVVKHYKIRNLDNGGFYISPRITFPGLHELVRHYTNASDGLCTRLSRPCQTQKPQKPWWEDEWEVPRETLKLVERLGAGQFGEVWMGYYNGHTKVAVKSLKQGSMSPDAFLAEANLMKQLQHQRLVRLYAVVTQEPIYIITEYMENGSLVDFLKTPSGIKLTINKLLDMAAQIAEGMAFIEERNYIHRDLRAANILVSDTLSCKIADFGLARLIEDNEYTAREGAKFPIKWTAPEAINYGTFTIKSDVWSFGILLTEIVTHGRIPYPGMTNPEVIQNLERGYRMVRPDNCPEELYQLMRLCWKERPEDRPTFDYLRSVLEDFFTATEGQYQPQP

SMILES	IC50 (LCK)	IC50 (EGFR)	IC50 (BTK)
COCCOc1cc(N(C)C(=O)/C=C/CN(C)C)cc(-n2c(=O)n(-c3ccc(C)c(OC)c3)c3c(N)ncnc32)c1 [Compound 147, (E)-N-(3-(6-amino-7-(3-methoxy-4-methylphenyl)-8-oxo-7H-purin-9(8H)-yl)-5-(2-methoxyethoxy)phenyl)-4-(dimethylamino)-N-methylbut-2-enamide]	> 10000 nM	> 10000 nM	< 100 nM
Cc1ccc(N(C)C(=O)/C=C/CN(C)C2CC2)cc1-n1c(=O)n(-c2ccc(Oc3ccccc3)cc2)c2c(N)ncnc21 [Compound 191, (E)-N-(3-(6-amino-8-oxo-7-(4-phenoxyphenyl)-7H-purin-9(8H)-yl)-4-methylphenyl)-4-(cyclopropyl(methyl)amino)-N-methylbut-2-enamide]	> 10000 nM	> 10000 nM	100 to 1000 nM
CNC/C=C/C(=O)N(C)c1cccc(-n2c(=O)n(-c3ccc(Oc4ccccc4)cc3)c3c(N)ncnc32)c1 [Compound 229, (E)-N-(3-(6-amino-8-oxo-7-(4-phenoxyphenyl)-7H-purin-9(8H)-yl)phenyl)-N-methyl-4-(methylamino)but-2-enamide hydrochloride]	1000 to 10000 nM	< 100 nM	< 100 nM
CN(C(=O)/C=C/CN(C)C1CC1)c1cccc(-n2c(=O)n(-c3ccc(OCc4ccccc4)cc3)c3c(N)ncnc32)c1 [Compound 234, (E)-N-(3-(6-amino-7-(4-(benzyloxy)phenyl)-8-oxo-7H-purin-9(8H)-yl)phenyl)-4-(cyclopropyl(methyl)amino)-N-methylbut-2-enamide]	1000 to 10000 nM	1000 to 10000 nM	< 100 nM
Cc1cccc(COc2ccc(-n3c(=O)n(-c4cccc(N(C)C(=O)/C=C/CN(C)C5CC5)c4)c4ncnc(N)c43)cc2)c1 [Compound 239, (E)-N-(3-(6-amino-7-(4-(3-methylbenzyloxy)phenyl)-8-oxo-7H-purin-9(8H)-yl)phenyl)-4-(cyclopropyl(methyl)amino)-N-methylbut-2-enamide]	> 10000 nM	1000 to 10000 nM	< 100 nM
CN(C(=O)/C=C/CN(C)C1CC1)c1cccc(-n2c(=O)n(-c3ccc(OCc4cccc(F)c4)cc3)c3c(N)ncnc32)c1 [Compound 244, (E)-N-(3-(6-amino-7-(4-(3-fluorobenzyloxy)phenyl)-8-oxo-7H-purin-9(8H)-yl)phenyl)-4-(cyclopropyl(methyl)amino)-N-methylbut-2-enamide]	> 10000 nM	1000 to 10000 nM	< 100 nM
CN(C(=O)/C=C/c1ccccn1)c1cccc(-n2c(=O)n(-c3ccc(Oc4ccccc4)cc3)c3c(N)ncnc32)c1 [Compound 247, (E)-N-(3-(6-amino-8-oxo-7-(4-phenoxyphenyl)-7H-purin-9(8H)-yl)phenyl)-N-methyl-3-(pyridin-2-yl)acrylamide]	1000 to 10000 nM	1000 to 10000 nM	100 to 1000 nM
COc1cc(-n2c(=O)n(-c3cccc(N(C)C(=O)/C=C/CN(C)C4CC4)c3)c3ncnc(N)c32)ccc1Oc1ccccc1 [Compound 285, (E)-N-(3-(6-amino-7-(3-methoxy-4-phenoxyphenyl)-8-oxo-7H-purin-9(8H)-yl)phenyl)-4-(cyclopropyl(methyl)amino)-N-methylbut-2-enamide]	1000 to 10000 nM	1000 to 10000 nM	< 100 nM

Results, then the compound that gave them:

IC50 (LCK)	IC50 (EGFR)	IC50 (BTK)	SMILES
1000 to 10000 nM	1000 to 10000 nM	< 100 nM	CN(C(=O)/C=C/CN(C)[C@H]1CCOC1)c1cccc(-n2c(=O)n(-c3ccc(Oc4ccccc4)cc3)c3c(N)ncnc32)c1 [Compound 123, (S,E)-N-(3-(6-amino-8-oxo-7-(4-phenoxyphenyl)-7H-purin-9(8H)-yl)phenyl)-N-methyl-4-(methyl(tetrahydrofuran-3-yl)amino)but-2-enamide]
1000 to 10000 nM	1000 to 10000 nM	< 100 nM	CN(C(=O)/C=C/CN(C)[C@@H]1CCOC1)c1cccc(-n2c(=O)n(-c3ccc(Oc4ccccc4)cc3)c3c(N)ncnc32)c1 [Compound 129, (R,E)-N-(3-(6-amino-8-oxo-7-(4-phenoxyphenyl)-7H-purin-9(8H)-yl)phenyl)-N-methyl-4-(methyl(tetrahydrofuran-3-yl)amino)but-2-enamide]
1000 to 10000 nM	100 to 1000 nM	< 100 nM	COCCN(C)C/C=C/C(=O)N(C)c1cccc(-n2c(=O)n(-c3ccc(Oc4ccccc4)cc3)c3c(N)ncnc32)c1 [Compound 134, (E)-N-(3-(6-amino-8-oxo-7-(4-phenoxyphenyl)-7H-purin-9(8H)-yl)phenyl)-4-((2-methoxyethyl)(methyl)amino)-N-methylbut-2-enamide]
1000 to 10000 nM	1000 to 10000 nM	< 100 nM	CN(C(=O)/C=C/CN(C)C1CC1)c1cccc(-n2c(=O)n(-c3ccc(Oc4cccc(F)c4)cc3)c3c(N)ncnc32)c1 [Compound 151, (E)-N-(3-(6-amino-7-(4-(3-fluorophenoxy)phenyl)-8-oxo-7H-purin-9(8H)-yl)phenyl)-4-(cyclopropyl(methyl)amino)-N-methylbut-2-enamide]
1000 to 10000 nM	100 to 1000 nM	< 100 nM	CN(C/C=C/C(=O)N1CCOc2ccc(-n3c(=O)n(-c4ccc(Oc5ccccc5)cc4)c4c(N)ncnc43)cc21)C1CC1 [Compound 161, (E)-6-amino-9-(4-(4-(cyclopropyl(methyl)amino)but-2-enoyl)-3,4-dihydro-2H-benzo[b][1,4]oxazin-6-yl)-7-(4-phenoxyphenyl)-7H-purin-8(9H)-one]
1000 to 10000 nM	1000 to 10000 nM	< 100 nM	COc1ccc(-n2c(=O)n(-c3ccc(Oc4ccccc4)cc3)c3c(N)ncnc32)cc1N(C)C(=O)/C=C/CN(C)C1CC1 [Compound 171, (E)-N-(5-(6-amino-8-oxo-7-(4-phenoxyphenyl)-7H-purin-9(8H)-yl)-2-methoxyphenyl)-4-(cyclopropyl(methyl)amino)-N-methylbut-2-enamide]
1000 to 10000 nM	1000 to 10000 nM	< 100 nM	Cc1ccc(-n2c(=O)n(-c3ccc(Oc4ccccc4)cc3)c3c(N)ncnc32)cc1N(C)C(=O)/C=C/CN(C)C1CC1 [Compound 201, (E)-N-(5-(6-amino-8-oxo-7-(4-phenoxyphenyl)-7H-purin-9(8H)-yl)-2-methylphenyl)-4-(cyclopropyl(methyl)amino)-N-methylbut-2-enamide]
1000 to 10000 nM	100 to 1000 nM	< 100 nM	Cc1cc(N(C)C(=O)/C=C/CN(C)C2CC2)cc(-n2c(=O)n(-c3ccc(Oc4ccccc4)cc3)c3c(N)ncnc32)c1 [Compound 211, (E)-N-(3-(6-amino-8-oxo-7-(4-phenoxyphenyl)-7H-purin-9(8H)-yl)-5-methylphenyl)-4-(cyclopropyl(methyl)amino)-N-methylbut-2-enamide]
1000 to 10000 nM	1000 to 10000 nM	< 100 nM	COc1cc(N(C)C(=O)/C=C/CN(C)C2CC2)cc(-n2c(=O)n(-c3ccc(Oc4ccccc4)cc3)c3c(N)ncnc32)c1 [Compound 224, (E)-N-(3-(6-amino-8-oxo-7-(4-phenoxyphenyl)-7H-purin-9(8H)-yl)-5-methoxyphenyl)-4-(cyclopropyl(methyl)amino)-N-methylbut-2-enamide]
100 to 1000 nM	100 to 1000 nM	< 100 nM	Cc1cc(NC(=O)/C=C/CN(C)C2CC2)cc(-n2c(=O)n(-c3ccc(Oc4ccccc4)cc3)c3c(N)ncnc32)c1 [Compound 255, (E)-N-(3-(6-amino-8-oxo-7-(4-phenoxyphenyl)-7H-purin-9(8H)-yl)-5-methylphenyl)-4-(cyclopropyl(methyl)amino)but-2-enamide]
